The subject of this experiment is Jeko-1 cells. Put plainly: CellTiter-Glo 2.0 Cytotoxicity Assay. It counts as cell-based. The settings on record: Homo sapiens, JeKo-1, read-out: Jeko-1 EC50 (nM), Jeko-1 cells, 3000 cells/well; compounds added Day 1; CellTiter-Glo 2.0 luminescence read on Day 4 or 5. As for the experimental part: Reaction progress and synthetic intermediate analysis were assessed by LCMS (UV detection with ESI, APCI, or other mass detection) when applicable using a MeCN/water gradient with either TFA, formic acid, or NH4HCO3 modifier. Silica gel and reverse-phase flash column chromatography were conducted with commercially available pre-packed columns. Reverse-phase preparative HPLC purification was performed on preparative HPLC instruments with UV and MS detection using a MeCN/water gradient with either TFA, formic acid, or NH4OH modifier. ^1H NMR spectra were collected at room temperature, and chemical shifts are reported in ppm relative to the residual proteo-solvent signals, and multiplicities, coupling constants (where applicable), and signal integrations are listed parenthetically. Unless otherwise noted, all EC50 data presented in tables refers to the CellTiter-Glo® 2.0 Cytotoxicity Assay that is described in the Biological Assay section.
CellTiter-Glo® 2.0 Cytotoxicity Assay
Step 1: Seed 384-Well Plates for Assay (45 μL Per Well) on Day 0
Jeko-1 cells were quickly thawed in a cryo-vial by incubating them in a 37° C. water bath for <1 min until there is just a small bit of ice left in the vial. The vial was promptly removed and wiped down with 70% ethanol. The cells were transferred from the vial to a sterile centrifuge tube containing 8 mL of pre-warmed cell culture medium. The vial was flushed with an additional 1 mL of medium to ensure complete transfer of cells to the centrifuge tube. The cells were then centrifuged at 150×g for 5 minutes. The supernatant was aspirated, and the cell pellet was resuspended in 10-20 mL cell culture medium. Cells were counted using Vi-cell and prepared 6.6×10^4 cells/ml, 3000 cells/45 μL per well. Then added 45 μL/well of cells into Corning® 384-well Low Flange White Flat Bottom Polystyrene TC-treated Microplates (Corning, Cat #3570) using Standard Cassette Combi (if needed, dispense 1 dummy plate at 20 μL to help normalize Combi, using medium speed). The plates were spun down at 150×g for 30 seconds.
Step 2: Add Compounds on Day 1
The compound plates and reference compound stock were taken out and allowed to thaw at RT. The tubes were centrifuged at 2000×g for 30 seconds. The 10× Intermediate assay plates (Greiner plate, Cat #781280) were prepared using an Echo liquid handler. Proper buffer (HBSS (Gibco, Cat #14025-092)+10 mM HEPES (Gibco, Cat #15630-080)+0.1% BSA (Sigma, Cat #A9576)) were used to make serial dilutions. Media (no cells) was used for Max_E. Compound (5 μL of 10×) was transferred from intermediate plate to assay plate using a Bravo liquid handler using a very slow speed so the cell monolayer wasn't disturbed. The plates were spun down at 150×g for 30 seconds.
Step 3: CellTiter-Glo 2.0 Assay (Promega, Cat #G9242) on Day 4 or 5 (CellTiter-Glo Kit Stored at −70° C.)
The CellTiter-Glo® 2.0 Reagent was thawed at 4° C. overnight, taking care not to expose the reagent to temperatures above 25° C.). The kit was equilibrated to RT for approximately 30 minutes. CellTiter-Glo® 2.0 Reagent (20 μl) was added to 50 μl of medium containing cells using Standard Cassette Combi. The contents were mixed for 2-3 minutes on an orbital shaker to induce cell lysis. The plates were spun down at 150×g for 30 seconds. The plates were allowed to incubate at RT for 5 minutes to stabilize the luminescent signal.
Illustrative compounds of the present disclosure were tested in the above assay in Example 15, and results are provided in the Table 9 below: […]
For orientation: Cellular ATP, detected with luciferase, serves as a proxy for viable cell number.

This note sets out measurements from patent publication US20240116945A1, “EXATECAN-DERIVED TOPOISOMERASE-1 INHIBITORS PHARMACEUTICAL COMPOSITIONS, AND USES THEREOF” (Merck Sharp & Dohme LLC, priority 2022, published 2024).

`CC[C@@]1(O)C(=O)OCc2c1cc1n(c2=O)Cc2c-1nc1cc(F)c(C)c3c1c2[C@@H](NC(=O)C(C)(NC(=O)[C@@H](C)N)C(F)F)CC3` (stereo partly shown) [Compound 47]: the EC50 amounted to 22 nM.
